Numbered stars: 1 amine (or outer) side, 2 acyl side, 3 side chain; on linkers, the order of the positions; unused ones are H or OH. Square brackets hold non-standard residues; d marks the D form. Peptide text beside a SMILES is read from it. * marks the point of attachment. NMeNle = CCCC[C@H](NC)C(=O)O; Suc = O=C(CCC(=O)[*:2])[*:1]; Malonamoyl = NC(=O)CC(=O)*; X3 = O=C(CS(=O)(=O)O)*; Boc = CC(C)(C)OC(=O)*; X2 = COC(=O)CC(=O)*; βAla = NCCC(=O)O
Legend:
[1] = biological target: T1, Cholecystokinin receptor type A (Cavia porcellus, UniProt Q63931); experiment: Affinity against Cholecystokinin type A receptor on guinea pig pancreatic membranes.
T1 sequence (Q63931 whole entry): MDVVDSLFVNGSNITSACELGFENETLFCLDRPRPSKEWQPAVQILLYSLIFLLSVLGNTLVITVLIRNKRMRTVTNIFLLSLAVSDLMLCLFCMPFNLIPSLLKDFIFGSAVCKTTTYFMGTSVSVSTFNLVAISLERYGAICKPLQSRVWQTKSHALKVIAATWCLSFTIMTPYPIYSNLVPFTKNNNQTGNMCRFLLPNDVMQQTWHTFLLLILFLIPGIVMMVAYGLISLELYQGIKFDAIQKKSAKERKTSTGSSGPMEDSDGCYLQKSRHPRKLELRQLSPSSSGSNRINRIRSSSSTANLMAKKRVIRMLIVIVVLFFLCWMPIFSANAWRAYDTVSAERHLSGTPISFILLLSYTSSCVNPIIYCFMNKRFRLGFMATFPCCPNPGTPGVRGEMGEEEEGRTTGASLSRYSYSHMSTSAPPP

[2] = biological target: T2, Gastrin/cholecystokinin type B receptor (Rattus norvegicus, UniProt P30553); experiment: Compound was tested for binding affinity against Cholecystokinin type B receptor expressed in CHO cells on the rat brain.; assay type: cell-based
T2 sequence (P30553 whole entry): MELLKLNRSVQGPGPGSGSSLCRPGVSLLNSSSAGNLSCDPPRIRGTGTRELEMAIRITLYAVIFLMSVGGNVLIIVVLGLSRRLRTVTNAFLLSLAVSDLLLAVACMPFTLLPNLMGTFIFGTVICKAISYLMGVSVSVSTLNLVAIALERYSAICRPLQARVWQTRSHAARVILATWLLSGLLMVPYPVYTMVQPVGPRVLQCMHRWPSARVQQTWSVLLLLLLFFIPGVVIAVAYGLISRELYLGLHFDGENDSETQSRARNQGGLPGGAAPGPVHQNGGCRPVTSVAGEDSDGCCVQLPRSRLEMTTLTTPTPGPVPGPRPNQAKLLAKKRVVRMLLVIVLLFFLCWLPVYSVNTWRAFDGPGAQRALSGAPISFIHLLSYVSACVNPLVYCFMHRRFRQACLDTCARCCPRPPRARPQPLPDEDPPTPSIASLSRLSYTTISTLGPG

[3] = biological target: Gastrin/cholecystokinin type B receptor (Cavia porcellus); experiment: Binding affinity against cholecystokinin type B receptor on guinea pig cortex.
[4] = biological target: T2, Gastrin/cholecystokinin type B receptor; experiment: Affinity against Cholecystokinin type B receptor expressed in CHO cells on rat brain.; assay type: functional, cell-based

| SMILES | Ki [1] [µM] | also measured |
| --- | --- | --- |
| CCCC[C@@H](C(=O)N[C@@H](CC(=O)O)C(=O)N[C@@H](Cc1ccccc1)C(N)=O)N(C)C(=O)[C@H](Cc1c[nH]c2ccccc12)NC(=O)[C@@H](C)N | > 3 | – |
| CCCC[C@@H](C(=O)N[C@@H](CC(=O)O)C(=O)N[C@@H](Cc1ccccc1)C(N)=O)N(C)C(=O)[C@H](Cc1c[nH]c2ccccc12)NC(=O)OC(C)(C)C (Boc-W[NMeNle]DF-NH2) | > 5 | Ki [2]: 0.0026 µM; Ki [3]: 0.0008 µM |
| CCCC[C@@H](C(=O)N[C@@H](CC(=O)O)C(=O)N[C@@H](Cc1ccccc1)C(N)=O)N(C)C(=O)[C@H](Cc1c[nH]c2ccccc12)NC(=O)CN (H-GW[NMeNle]DF-NH2) | > 3 | – |
| CCCC[C@@H](C(=O)N[C@@H](CC(=O)O)C(=O)N[C@@H](Cc1ccccc1)C(N)=O)N(C)C(=O)[C@@H](N)Cc1c[nH]c2ccccc12 (H-W[NMeNle]DF-NH2) | > 3 | – |
| CCCC[C@@H](C(=O)N[C@@H](CC(=O)O)C(=O)N[C@@H](Cc1ccccc1)C(N)=O)N(C)C(=O)[C@H](Cc1c[nH]c2ccccc12)NC(=O)CCC(=O)O (Suc-W[NMeNle]DF-NH2) | > 3 | – |
| CCCC[C@@H](C(=O)N[C@@H](CC(=O)O)C(=O)N[C@@H](Cc1ccccc1)C(N)=O)N(C)C(=O)[C@H](Cc1c[nH]c2ccccc12)NC(=O)CC(=O)OC (X2-W[NMeNle]DF-NH2) | – | EC50 [4]: 0.002 µM |
| CCCC[C@@H](C(=O)N[C@@H](CC(=O)O)C(=O)N[C@@H](Cc1ccccc1)C(N)=O)N(C)C(=O)[C@H](Cc1c[nH]c2ccccc12)NC(=O)CS(=O)(=O)O (X3-W[NMeNle]DF-NH2) | – | EC50 [4]: 0.00056 µM |

The next lines start with results.

| Ki [1] [µM] | SMILES | also measured |
| --- | --- | --- |
| > 3 | CCCC[C@@H](C(=O)N[C@@H](CC(=O)O)C(=O)N[C@@H](Cc1ccccc1)C(N)=O)N(C)C(=O)[C@H](Cc1c[nH]c2ccccc12)NC(=O)[C@H](C)N | – |
| 2.21 | C[C@@]1(Cc2c[nH]c3ccccc23)NC(=O)CCCCCCC[C@@H](C(=O)N[C@@H](CC(=O)O)C(=O)N[C@@H](Cc2ccccc2)C(N)=O)NC1=O | – |
| 2.9 | CCCC[C@H](NC(=O)[C@H](Cc1c[nH]c2ccccc12)NC(=O)[C@H]1CCCCNC(=O)C[C@H](NC(=O)OC(C)(C)C)C(=O)N[C@H](Cc2ccc(OS(=O)(=O)O)cc2)C(=O)N[C@@H](CCCC)C(=O)N1)C(=O)N[C@@H](CC(=O)O)C(=O)N[C@@H](Cc1ccccc1)C(N)=O | – |
| 22.8 | CCCC[C@@H](C(=O)N[C@@H](CC(=O)O)C(=O)N[C@@H](Cc1ccccc1)C(N)=O)N(C)C(=O)[C@H](Cc1c[nH]c2ccccc12)NC(=O)CC(N)=O (Malonamoyl-W[NMeNle]DF-NH2) | EC50 [4]: 0.00164 µM |
| 4.62 | CCCC[C@@H](C(=O)N[C@@H](CC(=O)O)C(=O)N[C@@H](Cc1ccccc1)C(N)=O)N(C)C(=O)[C@H](Cc1c[nH]c2ccccc12)NC(=O)CCNC(=O)OC(C)(C)C ({Boc-βAla}-W[NMeNle]DF-NH2) | – |
